Legend:
crabgrass, large [1] = assay: Test A postemergence; type: in vivo, Digitaria sanguinalis
How it was run: (§1)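 Seeds were sown in a loam soil–sand blend and given a directed soil spray preemergence; postemergence plants at 2–10 cm, one- to two-leaf stage, were sprayed with compound in non-phytotoxic solvent with surfactant. After about 10 days in a greenhouse, injury was visually rated against untreated controls (0 = no effect, 100 = complete control).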

galium = assay: Test C preemergence; type: in vivo, Galium aparine; settings: for Galium plant response rating / Plant response rating, Galium: preemergence; for Plant response rating, Galium: 125 g ai/ha, scale 0 to 100, 0 = no effect, 100 = complete control
How it was run: (§2)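 In this greenhouse assay, seeded soil (loam plus sand) or emerged seedlings in peat-vermiculite medium were treated with formulated compound. Roughly two weeks later (13–15 days), each species was scored visually relative to controls, from 0 for no effect to 100 for complete control.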

pigweed = assay: Test A preemergence; type: in vivo, Amaranthus retroflexus; settings: preemergence; for Pigweed plant response rating (0 to 100 scale): visual injury approx. 10 days after treatment
How it was run: as §1

crabgrass, large [2] = assay: Test A preemergence; type: in vivo, Digitaria sanguinalis; settings: preemergence; for Crabgrass, Large plant response rating (0 to 100 scale): visual injury approx. 10 days after treatment
How it was run: as §1

wheat [3] = assay: Test A postemergence; type: in vivo, Triticum aestivum
How it was run: as §1

wheat [4] = assay: Test C postemergence; type: in vivo, Triticum aestivum; settings: for Plant response rating (scale of 0 to 100 where 0 is no effect and 100 is complete control), Wheat: Postemergence, 31 g ai/ha, visually evaluated after 13 to 15 days; for Wheat plant response rating / Plant response rating, Wheat: postemergence; for Wheat plant response rating: scale 0 to 100
How it was run: as §2

lambsquarters [5] = assay: Test C preemergence; type: in vivo, Chenopodium album; settings: for Lambsquarters plant response rating / Plant response rating, Lambsquarters: preemergence; for Plant response rating, Lambsquarters: 125 g ai/ha, scale 0 to 100, 0 = no effect, 100 = complete control
How it was run: as §2

barnyardgrass = assay: Test C postemergence; type: in vivo, Echinochloa crus-galli; settings: for Plant response rating (scale of 0 to 100 where 0 is no effect and 100 is complete control), Barnyardgrass: Postemergence, 31 g ai/ha, visually evaluated after 13 to 15 days; for Barnyardgrass plant response rating / Plant response rating, Barnyardgrass: postemergence; for Barnyardgrass plant response rating: 62 g ai/ha, scale 0 to 100
How it was run: as §2

ducksalad = assay: Test B flood; type: in vivo, Heteranthera limosa; settings: 250 g ai/ha, visual rating on 0 to 100 scale (0 no effect, 100 complete control), 13 to 15 days
How it was run: (§3)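 2-leaf plants; pots flooded 3 cm over soil; compound added to paddy water, depth kept constant. Greenhouse 13–15 d. Visual rating vs controls, 0–100 scale (100 = complete control); dash = no result.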

lambsquarters [6] = assay: Test C postemergence; type: in vivo, Chenopodium album; settings: for Plant response rating (scale of 0 to 100 where 0 is no effect and 100 is complete control), Lambsquarters: Postemergence, 31 g ai/ha, visually evaluated after 13 to 15 days; for Lambsquarters plant response rating / Plant response rating, Lambsquarters: postemergence; for Lambsquarters plant response rating: 62 g ai/ha, scale 0 to 100
How it was run: as §2

corn = assay: Test A postemergence; type: in vivo, Zea mays
How it was run: as §1

wheat [7] = assay: Test C preemergence; type: in vivo, Triticum aestivum; settings: for Wheat plant response rating / Plant response rating, Wheat: preemergence; for Plant response rating, Wheat: 125 g ai/ha, scale 0 to 100, 0 = no effect, 100 = complete control
How it was run: as §2

rice = assay: Test B flood; type: in vivo, Oryza sativa; settings: 250 g ai/ha, visual rating on 0 to 100 scale (0 no effect, 100 complete control), 13 to 15 days
How it was run: as §3

waterhemp = assay: Test C preemergence; type: in vivo, Amaranthus rudis; settings: for Waterhemp plant response rating / Plant response rating, Waterhemp: preemergence; for Plant response rating, Waterhemp: 125 g ai/ha, scale 0 to 100, 0 = no effect, 100 = complete control
How it was run: as §2

[8] = Postemergence, 500 g ai/ha, 0 to 100 scale (0 no effect, 100 complete control)
[9] = postemergence, 125 g ai/ha, about 10 days, visual rating on 0 to 100 scale (0 no effect, 100 complete control)
[10] = 31 g ai/ha, visual rating, scale 0 to 100 (0 no effect, 100 complete control), 13 to 15 days
[11] = 62 g ai/ha, scale 0 to 100 (0 no effect, 100 complete control), 13 to 15 days
[12] = 125 g ai/ha, visual injury, 0 to 100 scale, approx. 10 days
[13] = 500 g ai/ha, visual injury after approx. 10 days, 0 to 100 scale (0 no effect, 100 complete control)
[14] = 250 g ai/ha, scale 0 to 100 (0 no effect, 100 complete control)
[15] = 125 g ai/ha, scale 0 to 100, 0 no effect, 100 complete control
[16] = 250 g ai/ha, scale 0 to 100, 0 is no effect, 100 is complete control
[17] = Postemergence, 125 g ai/ha, 0 to 100 scale, 0 no effect, 100 complete control

| Compound | Crabgrass, Large plant response rating (crabgrass, large [1]; [8]) | Crabgrass, Large plant response rating (crabgrass, large [1]; [9]) | Galium plant response rating (galium; [10]) | Galium plant response rating (galium; [11]) | Plant response rating, Galium (galium; 13 to 15 days) | Pigweed plant response rating (pigweed; [13]) | Crabgrass, Large plant response rating (crabgrass, large [2]; [13]) | Wheat plant response rating (wheat [3]; [8]) | Plant response rating, Wheat (wheat [4]; [14]) | Lambsquarters plant response rating (lambsquarters [5]; [10]) | Lambsquarters plant response rating (lambsquarters [5]; [11]) | Plant response rating, Lambsquarters (lambsquarters [5]; 13 to 15 days) | Plant response rating (scale of 0 to 100 where 0 is no effect and 100 is complete control), Barnyardgrass (barnyardgrass) | Barnyardgrass plant response rating (barnyardgrass) | Plant response rating, Barnyardgrass (barnyardgrass; [14]) | Plant response rating, Barnyardgrass (barnyardgrass; [15]) | Plant response rating, Ducksalad (ducksalad) | Plant response rating (scale of 0 to 100 where 0 is no effect and 100 is complete control), Lambsquarters (lambsquarters [6]) | Lambsquarters plant response rating (lambsquarters [6]) | Plant response rating, Lambsquarters (lambsquarters [6]; [14]) | further results |
| --- | --- | --- | --- | --- | --- | --- | --- | --- | --- | --- | --- | --- | --- | --- | --- | --- | --- | --- | --- | --- | --- |
| CCCNC(=O)c1cc(CC)n(Cc2ccnc(OC(F)F)c2)n1 [Compound 132] | 90 | 90 | 98 | 100 | 100 | 100 | 100 | 90 | 15 | 100 | 100 | 100 | 5 | 5 | 50 | 10 | 100 | 25 | 55 | 85 | Plant response rating (scale of 0 to 100), Galium (galium; Preemergence, 250 g ai/ha): 100; Pigweed plant response rating (pigweed; [12]): 100; Crabgrass, Large plant response rating (crabgrass, large [2]; [12]): 100; Wheat plant response rating (wheat [3]; [9]): 80; Plant response rating (scale of 0 to 100 where 0 is no effect and 100 is complete control), Wheat (wheat [4]): 5; Wheat plant response rating (wheat [4]; 62 g ai/ha): 10; Plant response rating, Wheat (wheat [4]; [15]): 10; Plant response rating (scale of 0 to 100), Lambsquarters (lambsquarters [5]; Preemergence, 250 g ai/ha): 100; Plant response rating, Lambsquarters (lambsquarters [6]; [15]): 75; Corn plant response rating (corn; [8]): 90; Corn plant response rating (corn; [9]): 70; Plant response rating (scale of 0 to 100), Wheat (wheat [7]; Preemergence, 250 g ai/ha): 95; Wheat plant response rating (wheat [7]; [10]): 15; Wheat plant response rating (wheat [7]; [11]): 15; Plant response rating, Wheat (wheat [7]; 13 to 15 days): 70; Plant response rating, Rice (rice): 35; Plant response rating (scale of 0 to 100), Waterhemp (waterhemp; Preemergence, 250 g ai/ha): 100; Waterhemp plant response rating (waterhemp; [10]): 100; Waterhemp plant response rating (waterhemp; [11]): 100; Plant response rating, Waterhemp (waterhemp; 13 to 15 days): 100 |
| CCc1cc(C(=O)NC(C)C)nn1Cc1ccnc(C(F)(F)F)c1 [Compound 139] | 90 | 90 | 30 | 80 | 100 | 100 | 100 | 90 | 25 | 35 | 85 | 100 | 10 | 10 | 20 | 10 | 100 | 40 | 55 | 85 | Galium plant response rating (galium; [16]): 100; Pigweed plant response rating (pigweed; [12]): 100; Crabgrass, Large plant response rating (crabgrass, large [2]; [12]): 100; Wheat plant response rating (wheat [3]; [9]): 50; Plant response rating (scale of 0 to 100 where 0 is no effect and 100 is complete control), Wheat (wheat [4]): 5; Wheat plant response rating (wheat [4]): 5; Lambsquarters plant response rating (lambsquarters [5]; [16]): 100; Plant response rating, Lambsquarters (lambsquarters [6]; [15]): 70; Corn plant response rating (corn; [8]): 90; Corn plant response rating (corn; [9]): 50; Wheat plant response rating (wheat [7]; [10]): 30; Wheat plant response rating (wheat [7]; [11]): 85; Plant response rating, Wheat (wheat [7]; 13 to 15 days): 85; Wheat plant response rating (wheat [7]; [16]): 90; Plant response rating, Rice (rice): 50; Waterhemp plant response rating (waterhemp; [10]): 85; Waterhemp plant response rating (waterhemp; [11]): 100; Plant response rating, Waterhemp (waterhemp; 13 to 15 days): 100; Waterhemp plant response rating (waterhemp; [16]): 100 |
| CCCc1cc(C(=O)NOCC)nn1Cc1ccnc(C(F)(F)F)c1 [Compound 185] | 90 | 80 | 80 | 100 | 95 | 0 | 100 | 80 | 10 | 98 | 98 | 100 | 0 | 0 | 20 | 5 | 50 | 70 | 35 | 65 | Galium plant response rating (galium; [16]): 100; Pigweed plant response rating (0 to 100 scale) (pigweed; 125 g ai/ha): 0; Crabgrass, Large plant response rating (0 to 100 scale) (crabgrass, large [2]; 125 g ai/ha): 100; Wheat plant response rating (wheat [3]; [17]): 0; Wheat plant response rating (wheat [4]): 5; Lambsquarters plant response rating (lambsquarters [5]; [16]): 100; Plant response rating, Lambsquarters (lambsquarters [6]; [15]): 45; Corn plant response rating (corn; [8]): 90; Corn plant response rating (corn; [9]): 0; Wheat plant response rating (wheat [7]; [10]): 0; Wheat plant response rating (wheat [7]; [11]): 60; Plant response rating, Wheat (wheat [7]; 13 to 15 days): 85; Wheat plant response rating (wheat [7]; [16]): 90; Plant response rating, Rice (rice): 10; Waterhemp plant response rating (waterhemp; [10]): 100; Waterhemp plant response rating (waterhemp; [11]): 100; Plant response rating, Waterhemp (waterhemp; 13 to 15 days): 100; Waterhemp plant response rating (waterhemp; [16]): 100 |
| CCOc1cc(C(=O)NC(C)C)nn1Cc1ccnc(C(F)(F)F)c1 [Compound 188] | 90 | 90 | 98 | 100 | 100 | 100 | 100 | 90 | 40 | 100 | 100 | 100 | 5 | 15 | 65 | 30 | 90 | 60 | 75 | 95 | Galium plant response rating (galium; [16]): 100; Pigweed plant response rating (0 to 100 scale) (pigweed; 125 g ai/ha): 100; Crabgrass, Large plant response rating (0 to 100 scale) (crabgrass, large [2]; 125 g ai/ha): 100; Wheat plant response rating (wheat [3]; [17]): 80; Wheat plant response rating (wheat [4]): 15; Lambsquarters plant response rating (lambsquarters [5]; [16]): 100; Plant response rating, Lambsquarters (lambsquarters [6]; [15]): 90; Corn plant response rating (corn; [8]): 100; Corn plant response rating (corn; [9]): 90; Wheat plant response rating (wheat [7]; [10]): 85; Wheat plant response rating (wheat [7]; [11]): 90; Plant response rating, Wheat (wheat [7]; 13 to 15 days): 90; Wheat plant response rating (wheat [7]; [16]): 90; Plant response rating, Rice (rice): 60; Waterhemp plant response rating (waterhemp; [10]): 100; Waterhemp plant response rating (waterhemp; [11]): 100; Plant response rating, Waterhemp (waterhemp; 13 to 15 days): 100; Waterhemp plant response rating (waterhemp; [16]): 100 |
